The values that follow are results of earlier work, collected in patent US20050101548A1, “Antimicrobial derivatives” (priority 2003, published 2005).

The subject of series [1] is macrolide-sensitive and resistant bacteria.

With `CC[C@H]1OC(=O)[C@H](C)C(=O)[C@H](C)[C@@H](O[C@@H]2O[C@H](C)C[C@H](N(C)C)[C@H]2O)[C@@]2(C)C[C@@H](C)/C(=N\C(C)=O)[C@H](C)[C@@H](OCC(=NOCc3ccc(-c4cccnc4)s3)CO2)[C@]1(C)O` [EP-12728], the “antibacterial activity against S. pneumoniae” value in the series with S. pneumoniae is on record as “possess antibacterial activity”.

`CC[C@H]1OC(=O)[C@H](C)C(=O)[C@H](C)[C@@H](O[C@@H]2O[C@H](C)C[C@H](N(C)C)[C@H]2O)[C@@]2(C)C[C@@H](C)/C(=N\C(C)=O)[C@H](C)[C@@H](OCC(=NOCc3ccccc3)CO2)[C@]1(C)O` [EP-1562]: the “antibacterial activity against S. pneumoniae” value in the series with S. pneumoniae is “possess antibacterial activity”.

Turning to `CC[C@H]1OC(=O)[C@H](C)[C@@H](O[C@H]2C[C@@](C)(OC)[C@@H](O)[C@H](C)O2)[C@H](C)[C@@H](O[C@@H]2O[C@H](C)C[C@H](N(C)C)[C@H]2O)[C@](C)(O)C[C@@H](C)C(=O)[C@H](C)[C@@H](O)[C@]1(C)O` [erythromycin A], the “activity against Gram-negative bacteria” value in the series with Gram-negative bacteria is given as “only weak activity”.

In the case of `C=C1CO[C@@H]2[C@@H](C)/C(=N/C(C)=O)[C@H](C)C[C@@](C)(OC1)[C@H](O[C@@H]1O[C@H](C)C[C@H](N(C)C)[C@H]1O)[C@@H](C)C(=O)[C@@H](C)C(=O)O[C@H](CC)[C@@]2(C)O` [EP-1304], the “activity against some macrolide-sensitive and resistant bacteria in vivo” value in series [1] is on record as “exhibits activity”.
